Results from patent US12503452B2 (Curza Global, LLC, priority 2019, dated 2025).
Like-named read-outs stand apart in the source and are kept apart here.

Tests used:
[1] = tested on: E. coli S30 extract (bacterial protein synthesis); test: E. coli S30 extract coupled transcription-translation luciferase assay (inhibition of bacterial protein synthesis); assay type: biochemical; details: class by IC50 or % inhibition @ 1 μM, read-out: S30 IC50 (μM/% inhib.)
How it was run: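 Luminescent read-out of luciferase made from pBESTluc DNA by E. coli S30 extract after 1 h at 37 °C with compound in an 8-point 2-fold series. Background came from no-DNA reactions. Percent inhibition was calculated against water-only controls.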

[2] = tested on: E. coli (Ec); test: Broth microdilution minimum inhibitory concentration (MIC); assay type: cell-based; details: Escherichia coli, E. coli, read-out: E. coli + bicarb MIC
How it was run: (§1)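 Two-fold compound series, 8 points in triplicate; medium CAMHB ± NaHCO3 (6.25 or 25 mM final) or ± 0–50% heat-inactivated human serum; inoculum 5×10^4 CFU/well; growth-method 0.5 McFarland suspensions; modified CLSI M07-A9.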

[3] = tested on: A. baumannii (Ab); test: as above; assay type: cell-based; details: Acinetobacter baumannii, A. baumannii, read-out: Ab + bicarb MIC
How it was run: as §1

[4] = tested on: S. aureus (Sa); test: as above; assay type: cell-based; details: Staphylococcus aureus, S. aureus, read-out: Sa + bicarb MIC
How it was run: as §1

[5] = tested on: P. aeruginosa (Pa); test: as above; assay type: cell-based; details: Pseudomonas aeruginosa, P. aeruginosa, read-out: Pa MIC + bicarb
How it was run: as §1

[6] = tested on: E. faecalis (Ef); test: as above; assay type: cell-based; details: Enterococcus faecalis, E. faecalis, read-out: Ef + bicarb MIC
How it was run: as §1

[7] = target: Rabbit Reticulocyte Lysate (eukaryotic protein synthesis); test: Rabbit reticulocyte lysate luciferase assay (inhibition of eukaryotic protein synthesis); assay type: biochemical; details: class by IC50 or % inhibition @ 1 μM, read-out: Rabbit reticulocyte IC50 (μM/% inhib.)
How it was run: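 Compounds were tested in 8-point 2-fold dilution series for blocking luciferase synthesis in nuclease-treated rabbit reticulocyte lysate (30° C., 90 minutes). Luminescence read-out, corrected by no-RNA background, was expressed as % inhibition against water-only reactions.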

[8] = growth medium supplemented with sodium bicarbonate
[9] = growth medium with sodium bicarbonate

Row | Structure (SMILES) | IC50 [1] [µM] | MIC [2, 8] [µg/mL] | MIC [3, 8] [µg/mL] | MIC [4, 8] [µg/mL] | MIC [5, 8] [µg/mL] | MIC [6, 8] [µg/mL] | IC50 [7] [µM] | MIC [2, 9] [µg/mL] | MIC [3, 9] [µg/mL] | MIC [4, 9] [µg/mL] | MIC [5, 9] [µg/mL] | MIC [6, 9] [µg/mL]
1 | CC(C)(N)C(=O)N1CCN(C(=O)Nc2ccn(-c3ccc(CCN4CCCC(N)CC4)c(F)c3)c(=O)n2)CC1 (stereo not drawn) [Compound 141] | < 0.5 | < 8 | > 32 | < 8 | 8 to 32 | < 8 | > 1 | – | – | – | – | –
2 | CC(C)(N)C(=O)N1CCN(C(=O)Nc2ccn(-c3ccc(CCN4CCCC(N)CC4)c(C(F)(F)F)c3)c(=O)n2)CC1 (stereo not drawn) [Compound 142] | < 0.5 | < 8 | 8 to 32 | < 8 | 8 to 32 | < 8 | > 1 | – | – | – | – | –
3 | CC(C)(N)C(=O)N1CCN(C(=O)Nc2ccn(-c3ccc(C[C@@H](N)C(=O)N4CCCC(N)CC4)cc3)c(=O)n2)CC1 (stereo partly drawn) [Compound 143] | > 1 | > 32 | > 32 | > 32 | > 32 | > 32 | > 1 | – | – | – | – | –
4 | CC(C)(N)C(=O)N1CCN(C(=O)Nc2ccn(-c3ccc(C(N)C(=O)N4CC(N)C4)cc3)c(=O)n2)CC1 (stereo not drawn) [Compound 144] | > 1 | > 32 | > 32 | > 32 | > 32 | > 32 | > 1 | – | – | – | – | –
5 | CC(C)(N)C(=O)N1CCN(C(=O)Nc2ccn(-c3ccc(C(N)C(=O)NC4CNC4)cc3)c(=O)n2)CC1 (stereo not drawn) [Compound 145] | 0.5 to 1 | > 32 | > 32 | > 32 | > 32 | > 32 | > 1 | – | – | – | – | –
6 | CC(C)(N)C(=O)N1CCN(C(=O)Nc2ccn(-c3ccc(C[C@H](N)C(=O)N4CC(N)C4)cc3)c(=O)n2)CC1 [Compound 146] | > 1 | > 32 | > 32 | > 32 | > 32 | > 32 | > 1 | – | – | – | – | –
7 | CC(C)(N)C(=O)N1CCN(C(=O)Nc2ccn(-c3ccc(C[C@H](N)C(=O)NC4CNC4)cc3)c(=O)n2)CC1 [Compound 147] | > 1 | > 32 | > 32 | > 32 | > 32 | > 32 | > 1 | – | – | – | – | –
8 | CC(C)(N)C(=O)N1CCN(C(=O)Nc2ccn(-c3ccc(C[C@H](N)C(=O)N4CCCC(N)CC4)cc3)c(=O)n2)CC1 (stereo partly drawn) [Compound 148] | < 0.5 | > 32 | > 32 | > 32 | > 32 | > 32 | > 1 | – | – | – | – | –
9 | CC(Cc1ccc(-n2ccc(NC(=O)N3CCN(C(=O)C(C)(C)N)CC3)nc2=O)cc1)N(C)[C@H]1CC[C@@H](N)C1 (stereo partly drawn) [Compound 149] | < 0.5 | < 8 | > 32 | < 8 | > 32 | 8 to 32 | > 1 | – | – | – | – | –
10 | CC(Cc1ccc(-n2ccc(NC(=O)N3CCN(C(=O)C(C)(C)N)CC3)nc2=O)cc1)N[C@H]1CC[C@@H](N)C1 (stereo partly drawn) [Compound 150] | 0.5 to 1 | < 8 | > 32 | < 8 | > 32 | > 32 | > 1 | – | – | – | – | –
11 | CCN(C(C)Cc1ccc(-n2ccc(NC(=O)N3CCN(C(=O)C(C)(C)N)CC3)nc2=O)cc1)[C@H]1CC[C@@H](N)C1 (stereo partly drawn) [Compound 151] | < 0.5 | < 8 | > 32 | < 8 | 8 to 32 | < 8 | > 1 | – | – | – | – | –
12 | CC(Cc1ccc(-n2ccc(NC(=O)N3CCN(C(=O)C(C)(C)N)CC3)nc2=O)cc1)NC1CCC(CN)CC1 (stereo not drawn) [Compound 152] | > 1 | < 8 | > 32 | < 8 | > 32 | > 32 | > 1 | – | – | – | – | –
13 | CC(Cc1ccc(-n2ccc(NC(=O)N3CCN(C(=O)C(C)(C)N)CC3)nc2=O)cc1)N(C)C1CCC(CN)CC1 (stereo not drawn) [Compound 153] | > 1 | < 8 | > 32 | < 8 | > 32 | > 32 | > 1 | – | – | – | – | –
14 | CCN(C(C)Cc1ccc(-n2ccc(NC(=O)N3CCN(C(=O)C(C)(C)N)CC3)nc2=O)cc1)C1CCC(CN)CC1 (stereo not drawn) [Compound 154] | < 0.5 | < 8 | > 32 | < 8 | > 32 | < 8 | > 1 | – | – | – | – | –
15 | CC(Cc1ccc(-n2ccc(NC(=O)N3CCN(C(=O)C(C)(C)N)CC3)nc2=O)cc1)NC[C@H]1C[C@H](N)C1 (stereo partly drawn) [Compound 156] | < 0.5 | < 8 | > 32 | < 8 | > 32 | 8 to 32 | > 1 | – | – | – | – | –
16 | CC(Cc1ccc(-n2ccc(NC(=O)N3CCN(C(=O)C(C)(C)N)CC3)nc2=O)cc1)N(C)C[C@H]1C[C@H](N)C1 (stereo partly drawn) [Compound 157] | < 0.5 | < 8 | > 32 | < 8 | > 32 | < 8 | > 1 | – | – | – | – | –
17 | CCN(C[C@H]1C[C@H](N)C1)C(C)Cc1ccc(-n2ccc(NC(=O)N3CCN(C(=O)C(C)(C)N)CC3)nc2=O)cc1 (stereo partly drawn) [Compound 158] | < 0.5 | < 8 | > 32 | < 8 | 8 to 32 | < 8 | > 1 | – | – | – | – | –
18 | CC(Cc1ccc(-n2ccc(NC(=O)N3CCN(C(=O)C(C)(C)N)CC3)nc2=O)cc1)NC[C@H]1C[C@@H](N)C1 (stereo partly drawn) [Compound 159] | < 0.5 | < 8 | > 32 | < 8 | > 32 | 8 to 32 | > 1 | – | – | – | – | –
19 | CC(Cc1ccc(-n2ccc(NC(=O)N3CCN(C(=O)C(C)(C)N)CC3)nc2=O)cc1)N(C)C[C@H]1C[C@@H](N)C1 (stereo partly drawn) [Compound 160] | < 0.5 | < 8 | > 32 | < 8 | > 32 | < 8 | > 1 | – | – | – | – | –
20 | CCN(C[C@H]1C[C@@H](N)C1)C(C)Cc1ccc(-n2ccc(NC(=O)N3CCN(C(=O)C(C)(C)N)CC3)nc2=O)cc1 (stereo partly drawn) [Compound 161] | < 0.5 | < 8 | 8 to 32 | < 8 | > 32 | < 8 | > 1 | – | – | – | – | –
21 | CC(Cc1ccc(-n2ccc(NC(=O)N3CCN(C(=O)C(C)(C)N)CC3)nc2=O)cc1)N[C@H]1CC[C@H](N)C1 (stereo partly drawn) [Compound 162] | < 0.5 | < 8 | > 32 | < 8 | > 32 | 8 to 32 | > 1 | – | – | – | – | –
22 | CC(Cc1ccc(-n2ccc(NC(=O)N3CCN(C(=O)C(C)(C)N)CC3)nc2=O)cc1)N(C)[C@H]1CC[C@H](N)C1 (stereo partly drawn) [Compound 163] | > 1 | – | – | – | – | – | > 1 | 8 to 32 | > 32 | 8 to 32 | > 32 | > 32
23 | CCN(C(C)Cc1ccc(-n2ccc(NC(=O)N3CCN(C(=O)C(C)(C)N)CC3)nc2=O)cc1)[C@H]1CC[C@H](N)C1 (stereo partly drawn) [Compound 164] | < 0.5 | – | – | – | – | – | > 1 | < 8 | 8 to 32 | < 8 | > 32 | < 8
24 | CC(Cc1ccc(-n2ccc(NC(=O)N3CCN(C(=O)C(C)(C)N)CC3)nc2=O)cc1)NCC1CNC1 (stereo not drawn) [Compound 165] | > 1 | – | – | – | – | – | > 1 | 8 to 32 | > 32 | > 32 | > 32 | > 32
25 | CC(Cc1ccc(-n2ccc(NC(=O)N3CCN(C(=O)C(C)(C)N)CC3)nc2=O)cc1)N(C)CC1CNC1 (stereo not drawn) [Compound 166] | > 1 | – | – | – | – | – | > 1 | 8 to 32 | > 32 | 8 to 32 | > 32 | > 32
26 | CCN(CC1CNC1)C(C)Cc1ccc(-n2ccc(NC(=O)N3CCN(C(=O)C(C)(C)N)CC3)nc2=O)cc1 (stereo not drawn) [Compound 167] | > 1 | – | – | – | – | – | > 1 | < 8 | > 32 | 8 to 32 | > 32 | 8 to 32
27 | CC(Cc1ccc(-n2ccc(NC(=O)N3CCN(C(=O)C(C)(C)N)CC3)nc2=O)cc1)N1CCC(N)CC1 (stereo not drawn) [Compound 169] | < 0.5 | – | – | – | – | – | > 1 | < 8 | 8 to 32 | < 8 | 8 to 32 | < 8
